Values after ≈ are worked out from the molar mass of the structure shown.
What was measured:
Enterococcus faecium [1] = experiment: Minimum inhibitory concentration against Enterococcus faecium (GC 2243) was determined; assay type: functional
Bacillus cereus = experiment: Minimum inhibitory concentration against Bacillus cereus (GC 4561) was determined; assay type: functional
Escherichia coli [2] = experiment: Minimum inhibitory concentration against Escherichia coli (GC 4564) was determined; assay type: functional
Streptococcus pneumoniae [3] = experiment: Minimum inhibitory concentration against Streptococcus pneumoniae (GC 1894) was determined; assay type: functional
Staphylococcus aureus [4] = experiment: Minimum inhibitory concentration against Staphylococcus aureus (GC 4545) was determined; assay type: functional
Enterococcus faecalis [5] = experiment: Minimum inhibitory concentration against Enterococcus faecalis (GC 6189) was determined; assay type: functional
Staphylococcus aureus [6] = experiment: Minimum inhibitory concentration against Staphylococcus aureus (GC 4543) was determined; assay type: functional
Escherichia coli [7] = experiment: Minimum inhibitory concentration against Escherichia coli (GC 2203) was determined; assay type: functional
[8] = Minimum inhibitory concentration against SCN (GC 4551) was determined; assay type: functional
Enterococcus faecalis [9] = experiment: Minimum inhibitory concentration against Enterococcus faecalis (GC 4554) was determined; assay type: functional
[10] = Minimum inhibitory concentration against SCN (GC 4549) was determined; assay type: functional
Micrococcus luteus = experiment: Minimum inhibitory concentration against Sarcina lutea (GC 4562) was determined; assay type: functional
Enterococcus faecalis [11] = experiment: Minimum inhibitory concentration against Enterococcus faecalis (GC 4552) was determined; assay type: functional
Enterococcus faecalis [12] = experiment: Minimum inhibitory concentration against Enterococcus faecalis (GC 2242) was determined; assay type: functional
[13] = Minimum inhibitory concentration against SCN (GC 6257) was determined; assay type: functional
Staphylococcus aureus [14] = experiment: Minimum inhibitory concentration against Staphylococcus aureus (GC 1131) was determined; assay type: functional
Streptococcus pneumoniae [15] = experiment: Minimum inhibitory concentration against Streptococcus pneumoniae (GC 4565) was determined; assay type: functional
Streptococcus agalactiae = experiment: Minimum inhibitory concentration against Streptococcus agalactiae (GC4564) was determined; assay type: functional
[16] = Minimum inhibitory concentration against SCN (GC 4548) was determined; assay type: functional
Streptococcus pneumoniae [17] = experiment: Minimum inhibitory concentration against Streptococcus pneumoniae (GC 6242) was determined; assay type: functional
Escherichia coli [18] = experiment: Minimum inhibitory concentration against Escherichia coli (GC 4560) was determined; assay type: functional
[19] = Minimum inhibitory concentration against SCN (GC 4547) was determined; assay type: functional
Enterococcus faecalis [20] = experiment: Minimum inhibitory concentration against Enterococcus faecalis (GC 4553) was determined; assay type: functional
Staphylococcus aureus [21] = experiment: Minimum inhibitory concentration against Staphylococcus aureus (GC 3066) was determined; assay type: functional
Enterococcus faecalis [22] = experiment: Minimum inhibitory concentration against Enterococcus faecalis (GC 3059) was determined; assay type: functional
Enterococcus faecium [23] = experiment: Minimum inhibitory concentration against Enterococcus faecium (GC 4557) was determined; assay type: functional
Staphylococcus aureus [24] = experiment: Minimum inhibitory concentration against Staphylococcus aureus (GC 3051) was determined; assay type: functional
Staphylococcus aureus [25] = experiment: Minimum inhibitory concentration against Staphylococcus aureus (GC 2216) was determined; assay type: functional
Candida albicans = experiment: Minimum inhibitory concentration against Candida albicans GC 3066 was determined; assay type: functional
Enterococcus avium = experiment: Minimum inhibitory concentration against Enterococcus avium (GC 4558) was determined; assay type: functional
Enterococcus faecalis [26] = experiment: Minimum inhibitory concentration against Enterococcus faecalis (GC 2691) was determined; assay type: functional
Streptococcus pyogenes = experiment: Minimum inhibitory concentration against Streptococcus pyogenes (GC 4563) was determined; assay type: functional
Staphylococcus aureus [27] = experiment: Minimum inhibitory concentration against Staphylococcus aureus (GC 4544) was determined; assay type: functional
Pseudomonas aeruginosa = experiment: Minimum inhibitory concentration against Pseudomonas aeruginosa (GC 2214) control was determined; assay type: functional
Morganella morganii = experiment: Minimum inhibitory concentration against Morganella morganii (GC 4381) was determined; assay type: functional
Enterococcus faecium [28] = experiment: Minimum inhibitory concentration against Enterococcus faecium (GC 4556) was determined; assay type: functional
Staphylococcus aureus [29] = experiment: Minimum inhibitory concentration against Staphylococcus aureus (GC 4542) was determined; assay type: functional
Staphylococcus aureus [30] = experiment: Minimum inhibitory concentration against Staphylococcus aureus (GC 4541 was determined; assay type: functional
[31] = test system: Staphylococcus haemolyticus; experiment: Minimum inhibitory concentration against Staphylococcus haemolyticus (GC 4546) was determined
Enterococcus faecalis [32] = experiment: Minimum inhibitory concentration against Enterococcus faecalis (GC 4555) was determined; assay type: functional
Staphylococcus aureus [33] = experiment: Minimum inhibitory concentration against Staphylococcus aureus smith; assay type: functional
Mus musculus = experiment: In vivo activity against Staphylococcus aureus smith was determined after iv administration in mice; assay type: functional

Structure (SMILES): COc1ccc2cc(CO[C@@H]3[C@@H](O[C@H]4[C@H](O)[C@H](O)[C@@H](Oc5ccc(C[C@H]6NC(=O)[C@H]([C@@H](C)c7ccccc7)NC(=O)CNC(=O)[C@H](CO)NC(=O)[C@@H]([C@@H](O)[C@@H]7CN=C(N)N7[C@H]7O[C@H](O)[C@@H](O)[C@H](O)[C@@H]7O)NC(=O)[C@H]([C@@H](O)[C@@H]7CN=C(N)N7)NC6=O)cc5)O[C@@H]4CO)O[C@H](CO)[C@@H](O)[C@@H]3O)ccc2c1
- MIC (Enterococcus faecium [1]): 128 µg/mL (≈ 88.2 µM)
- MIC (Bacillus cereus): 128 µg/mL (≈ 88.2 µM)
- MIC (Escherichia coli [2]): > 128 µg/mL
- MIC (Streptococcus pneumoniae [3]): 16 µg/mL (≈ 11 µM)
- MIC (Staphylococcus aureus [4]): 128 µg/mL (≈ 88.2 µM)
- MIC (Enterococcus faecalis [5]): > 128 µg/mL
- MIC (Staphylococcus aureus [6]): 64 µg/mL (≈ 44.1 µM)
- MIC (Escherichia coli [7]): > 128 µg/mL
- MIC [8]: 64 µg/mL (≈ 44.1 µM)
- MIC (Enterococcus faecalis [9]): > 128 µg/mL
- MIC [10]: 64 µg/mL (≈ 44.1 µM)
- MIC (Micrococcus luteus): 16 µg/mL (≈ 11 µM)
- MIC (Enterococcus faecalis [11]): > 128 µg/mL
- MIC (Enterococcus faecalis [12]): > 128 µg/mL
- MIC [13]: 32 µg/mL (≈ 22 µM)
- MIC (Staphylococcus aureus [14]): 128 µg/mL (≈ 88.2 µM)
- MIC (Streptococcus pneumoniae [15]): 32 µg/mL (≈ 22 µM)
- MIC (Streptococcus agalactiae): 32 µg/mL (≈ 22 µM)
- MIC [16]: 64 µg/mL (≈ 44.1 µM)
- MIC (Streptococcus pneumoniae [17]): 32 µg/mL (≈ 22 µM)
- MIC (Escherichia coli [18]): 32 µg/mL (≈ 22 µM)
- MIC [19]: 64 µg/mL (≈ 44.1 µM)
- MIC (Enterococcus faecalis [20]): 128 µg/mL (≈ 88.2 µM)
- MIC (Staphylococcus aureus [21]): 128 µg/mL (≈ 88.2 µM)
- MIC (Enterococcus faecalis [22]): > 128 µg/mL
- MIC (Enterococcus faecium [23]): 32 µg/mL (≈ 22 µM)
- MIC (Staphylococcus aureus [24]): 128 µg/mL (≈ 88.2 µM)
- MIC (Staphylococcus aureus [25]): 128 µg/mL (≈ 88.2 µM)
- MIC (Candida albicans): > 64 µg/mL
- MIC (Enterococcus avium): 128 µg/mL (≈ 88.2 µM)
- MIC (Enterococcus faecalis [26]): > 128 µg/mL
- MIC (Streptococcus pyogenes): 64 µg/mL (≈ 44.1 µM)
- MIC (Staphylococcus aureus [27]): 128 µg/mL (≈ 88.2 µM)
- MIC (Pseudomonas aeruginosa): > 128 µg/mL
- MIC (Morganella morganii): > 128 µg/mL
- MIC (Enterococcus faecium [28]): > 128 µg/mL
- MIC (Staphylococcus aureus [29]): > 128 µg/mL
- MIC (Staphylococcus aureus [30]): 64 µg/mL (≈ 44.1 µM)
- MIC [31]: 64 µg/mL (≈ 44.1 µM)
- MIC (Enterococcus faecalis [32]): > 128 µg/mL

Structure (SMILES): COc1ccc2cc(COC[C@H]3O[C@H](O[C@H]4[C@H](O)[C@H](O)[C@@H](Oc5ccc(C[C@H]6NC(=O)[C@H]([C@@H](C)c7ccccc7)NC(=O)CNC(=O)[C@H](CO)NC(=O)[C@@H]([C@@H](O)[C@@H]7CN=C(N)N7[C@H]7O[C@H](O)[C@@H](O)[C@H](O)[C@@H]7O)NC(=O)[C@H]([C@@H](O)[C@@H]7CN=C(N)N7)NC6=O)cc5)O[C@@H]4CO)[C@@H](O)[C@@H](O)[C@@H]3O)ccc2c1
- MIC (Enterococcus faecium [1]): 8 µg/mL (≈ 5.51 µM)
- MIC (Bacillus cereus): 64 µg/mL (≈ 44.1 µM)
- MIC (Escherichia coli [2]): > 64 µg/mL
- MIC (Staphylococcus aureus [33]): 1 µg/mL (≈ 0.689 µM)
- MIC (Streptococcus pneumoniae [3]): 8 µg/mL (≈ 5.51 µM)
- MIC (Staphylococcus aureus [4]): 1 µg/mL (≈ 0.689 µM)
- MIC (Enterococcus faecalis [5]): 4 µg/mL (≈ 2.76 µM)
- MIC (Staphylococcus aureus [6]): 1 µg/mL (≈ 0.689 µM)
- MIC (Escherichia coli [7]): 1 µg/mL (≈ 0.689 µM)
- MIC [8]: 2 µg/mL (≈ 1.38 µM)
- ED50 (Mus musculus): 0.12 mg/kg
- MIC (Enterococcus faecalis [9]): 8 µg/mL (≈ 5.51 µM)
- MIC [10]: 1 µg/mL (≈ 0.689 µM)
- MIC (Micrococcus luteus): 2 µg/mL (≈ 1.38 µM)
- MIC (Enterococcus faecalis [11]): 8 µg/mL (≈ 5.51 µM)
- MIC (Enterococcus faecalis [12]): 8 µg/mL (≈ 5.51 µM)
- MIC [13]: 0.5 µg/mL (≈ 0.344 µM)
- MIC (Staphylococcus aureus [14]): 2 µg/mL (≈ 1.38 µM)
- MIC (Streptococcus pneumoniae [15]): 0.5 µg/mL (≈ 0.344 µM)
- MIC (Streptococcus agalactiae): 0.25 µg/mL (≈ 0.172 µM)
- MIC [16]: 0.5 µg/mL (≈ 0.344 µM)
- MIC (Streptococcus pneumoniae [17]): ≤ 0.06 µg/mL
- MIC (Escherichia coli [18]): > 64 µg/mL
- MIC [19]: 1 µg/mL (≈ 0.689 µM)
- MIC (Enterococcus faecalis [20]): 8 µg/mL (≈ 5.51 µM)
- MIC (Staphylococcus aureus [21]): 2 µg/mL (≈ 1.38 µM)
- MIC (Enterococcus faecalis [22]): 4 µg/mL (≈ 2.76 µM)
- MIC (Enterococcus faecium [23]): 8 µg/mL (≈ 5.51 µM)
- MIC (Staphylococcus aureus [24]): 0.12 µg/mL (≈ 0.0827 µM)
- MIC (Staphylococcus aureus [25]): 2 µg/mL (≈ 1.38 µM)
- MIC (Candida albicans): > 64 µg/mL
- MIC (Enterococcus avium): 2 µg/mL (≈ 1.38 µM)
- MIC (Enterococcus faecalis [26]): 0.25 µg/mL (≈ 0.172 µM)
- MIC (Streptococcus pyogenes): 8 µg/mL (≈ 5.51 µM)
- MIC (Staphylococcus aureus [27]): 2 µg/mL (≈ 1.38 µM)
- MIC (Pseudomonas aeruginosa): 0.12 µg/mL (≈ 0.0827 µM)
- MIC (Morganella morganii): > 64 µg/mL
- MIC (Enterococcus faecium [28]): 8 µg/mL (≈ 5.51 µM)
- MIC (Staphylococcus aureus [29]): 2 µg/mL (≈ 1.38 µM)
- MIC (Staphylococcus aureus [30]): 1 µg/mL (≈ 0.689 µM)
- MIC [31]: 1 µg/mL (≈ 0.689 µM)
- MIC (Enterococcus faecalis [32]): 8 µg/mL (≈ 5.51 µM)
